Results from ChEMBL document CHEMBL1201862, “PubChem BioAssay data set” (2004).
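Method: 48-hour compound exposure of cells in 96-well plates, five concentrations, linear interpolation of endpoints. GI50 is the concentration that inhibits growth by half.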 The source made the active and inactive calls. Cut-off read from the data, not from the text of the source: active = GI50 up to about 1.1 µM and inactive = higher.

What was measured:
Assay in all cases: NCI tumour cell line growth inhibition, 48 h
[1] = tested on: 786-0
[2] = tested on: A498
[3] = tested on: ACHN
[4] = tested on: CAKI-1
[5] = tested on: K562
[6] = tested on: LOX IMVI
[7] = tested on: NCI-H226
[8] = tested on: NCI-H460
[9] = tested on: NCI-H522
[10] = tested on: OVCAR-4
[11] = tested on: SF-268
[12] = tested on: SF-295
[13] = tested on: SN12C
[14] = tested on: SK-OV-3
[15] = tested on: TK-10
[16] = tested on: U-251

Measured: GI50

Cc1cc(O)c2c(c1)OC1(C)CCC3C(C)(C)CCCC34COC2C14 (centres undefined)
inactive: [1] 14.4 µM | [2] 13.2 µM | [3] 12.7 µM | [4] 18.3 µM | [5] 20.8 µM | [6] 14 µM | [7] 14 µM | [8] 16.4 µM | [9] 17.6 µM | [10] 18.6 µM | [11] 13.6 µM | [12] 15.1 µM | [13] 16.7 µM

Cn1cnc([N+](=O)[O-])c1Sc1nccn1-c1ccccc1
inactive: [1] > 100 µM | [2] > 100 µM | [3] 47.6 µM | [4] 97.9 µM | [5] 52.4 µM | [6] 16.8 µM | [7] 33.7 µM | [8] 41.4 µM | [9] 11.6 µM | [10] 44.6 µM | [11] 66.5 µM | [12] > 100 µM | [14] > 100 µM | [13] 42.3 µM | [15] > 100 µM | [16] 49.8 µM

Cc1cc2nc3c(C(OC4OC(CO)C(O)C(O)C4O)C(O)CO)nn(-c4ccccc4)c3nc2cc1C (centres undefined)
inactive: [1] > 100 µM | [2] > 100 µM | [3] > 100 µM | [5] > 100 µM | [6] > 100 µM | [8] > 100 µM | [9] > 100 µM | [10] > 100 µM | [11] > 100 µM | [12] > 100 µM | [14] > 100 µM | [13] > 100 µM | [15] > 100 µM | [16] > 100 µM

Cc1ccnc(NS(=O)(=O)c2ccc(NC3=CC(=O)C(=O)c4ccccc43)cc2)n1
inactive: [1] > 100 µM | [2] > 100 µM | [3] > 100 µM | [4] > 100 µM | [5] > 100 µM | [6] > 100 µM | [7] > 100 µM | [8] > 100 µM | [9] > 100 µM | [10] > 100 µM | [11] > 100 µM | [12] > 100 µM | [14] > 100 µM | [13] > 100 µM | [15] > 100 µM | [16] > 100 µM

N#C/C(c1nc2ccccc2[nH]1)=c1\s/c(=C/c2ccccc2)c(=O)n1-c1ccccc1
inactive: [1] > 100 µM | [2] 65.5 µM | [3] > 100 µM | [4] > 100 µM | [5] > 100 µM | [6] > 100 µM | [7] > 100 µM | [8] 65.2 µM | [9] > 100 µM | [10] > 100 µM | [11] > 100 µM | [14] > 100 µM | [13] > 100 µM | [15] > 100 µM | [16] > 100 µM

CCCCCCCCCCNC(=S)OCCCC
inactive: [1] 29.1 µM | [2] 25.6 µM | [3] 28.1 µM | [4] 25.8 µM | [5] 18.5 µM | [6] 15.9 µM | [8] 21.9 µM | [9] 18.6 µM | [10] 34 µM | [11] 22.8 µM | [12] 45.4 µM | [14] 30 µM | [13] 19.7 µM | [15] 14.7 µM | [16] 19.5 µM

CN(C)C(=S)/N=c1\ss/c(=N/c2ccccc2)n1C
inactive: [1] 22.6 µM | [2] 28.9 µM | [3] > 100 µM | [4] 36.2 µM | [5] > 100 µM | [6] > 100 µM | [7] > 100 µM | [8] > 100 µM | [10] 50.6 µM | [11] 27.2 µM | [12] 75.9 µM | [14] 32.4 µM | [13] > 100 µM | [15] > 100 µM | [16] 46.7 µM

O=c1c(O)cccn1C1OC(CO)C(O)C1O (centres undefined)
inactive: [1] > 100 µM | [2] > 100 µM | [3] > 100 µM | [4] > 100 µM | [5] > 100 µM | [6] > 100 µM | [7] > 100 µM | [8] > 100 µM | [9] > 100 µM | [10] > 100 µM | [11] > 100 µM | [14] > 100 µM | [13] > 100 µM | [15] > 100 µM | [16] > 100 µM

CC(=O)OC1CC2C(C)(C)C(=O)C=C[C@]2(C)C2CCC3(C)C(c4ccoc4)C(=O)[C@H]4O[C@]43[C@]12C (some centres undefined)
inactive: [1] 18.1 µM | [2] 20.3 µM | [3] 17.9 µM | [4] 20.3 µM | [5] 15.6 µM | [6] 20 µM | [7] 23.7 µM | [8] 17.4 µM | [9] 16.4 µM | [10] 22.3 µM | [11] 38.9 µM | [14] > 100 µM | [13] 23.3 µM | [15] 31.6 µM | [16] 18.6 µM
